Tests used:
EGFR T790M L858R = molecular target: T1, EGFR T790M L858R (Homo sapiens, UniProt P00533, L858R/T790M); assay: EGFR T790M L858R biochemical assay (Caliper mobility shift); details: 5 μM ATP; apparent Ki (Morrison fit) converted by Cheng-Prusoff, Km of ATP 1.3 μM
T1 construct: purchased Life Technologies PV4879
Method in brief: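 Reactions run 30 minutes at room temperature (22 °C), stopped with 80 mM EDTA. Phosphorylated product and substrate separated electrophoretically and quantified by Caliper mobility shift.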

EGFR del746-750 T790M = molecular target: T2, EGFR del746-750 T790M (Homo sapiens, UniProt P00533, DEL746-750/T790M); assay: EGFR del746-750 T790M biochemical assay (Caliper mobility shift); details: 5 μM ATP; apparent Ki (Morrison fit) converted by Cheng-Prusoff, Km of ATP 2.1 μM; read-out: EGFR(T790M/d746-750) Ki
T2 construct: purchased Carna Biosciences 08-528
T2 sequence (P00533 with tags, fused parts or gaps DEL746-750/T790M limits assumed): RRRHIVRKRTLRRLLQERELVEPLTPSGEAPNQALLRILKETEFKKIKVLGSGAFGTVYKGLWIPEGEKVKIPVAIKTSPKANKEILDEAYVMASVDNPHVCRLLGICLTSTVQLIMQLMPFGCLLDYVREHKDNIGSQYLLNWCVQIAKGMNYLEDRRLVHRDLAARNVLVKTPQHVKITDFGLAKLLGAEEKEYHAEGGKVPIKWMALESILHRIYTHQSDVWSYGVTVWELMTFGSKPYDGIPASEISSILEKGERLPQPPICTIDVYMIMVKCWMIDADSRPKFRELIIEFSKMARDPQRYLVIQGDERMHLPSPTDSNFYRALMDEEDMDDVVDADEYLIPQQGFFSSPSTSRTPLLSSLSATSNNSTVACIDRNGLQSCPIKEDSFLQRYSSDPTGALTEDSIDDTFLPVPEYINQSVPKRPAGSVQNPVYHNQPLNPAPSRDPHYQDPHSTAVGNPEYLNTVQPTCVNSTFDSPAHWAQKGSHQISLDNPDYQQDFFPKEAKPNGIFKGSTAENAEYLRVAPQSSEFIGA
Description: The exemplified compounds described herein were tested according to the assay below. The enzyme data reported in Tables 4-5 is generally a representative of multiple experiments.
Reactions proceed for 30 minutes at room temperature (22° C.) and are terminated with 80 mM 2,2′,2″,2″′-(ethane-1,2-diyldinitrilo)tetraacetic acid (EDTA). Product is detected using the Caliper mobility shift detection method where product and substrate are electrophoretically separated and measured.

[1] = molecular target: T3, phosphor-EGFR in H1975(L585R/T790M) mutant EGFR expressing cells (Homo sapiens, UniProt P00533, L858R/T790M); assay: H1975 pEGFR MSD cellular assay; assay type: cell-based; details: NCI-H1975 cells, serum starved, 1 hour compound incubation, pEGFR Tyr1068 MSD; read-out: HI975 pEGFR EC50
T3 construct: host or cells: NCI-H1975
T3 sequence (P00533 25-1210 T790M/L858R): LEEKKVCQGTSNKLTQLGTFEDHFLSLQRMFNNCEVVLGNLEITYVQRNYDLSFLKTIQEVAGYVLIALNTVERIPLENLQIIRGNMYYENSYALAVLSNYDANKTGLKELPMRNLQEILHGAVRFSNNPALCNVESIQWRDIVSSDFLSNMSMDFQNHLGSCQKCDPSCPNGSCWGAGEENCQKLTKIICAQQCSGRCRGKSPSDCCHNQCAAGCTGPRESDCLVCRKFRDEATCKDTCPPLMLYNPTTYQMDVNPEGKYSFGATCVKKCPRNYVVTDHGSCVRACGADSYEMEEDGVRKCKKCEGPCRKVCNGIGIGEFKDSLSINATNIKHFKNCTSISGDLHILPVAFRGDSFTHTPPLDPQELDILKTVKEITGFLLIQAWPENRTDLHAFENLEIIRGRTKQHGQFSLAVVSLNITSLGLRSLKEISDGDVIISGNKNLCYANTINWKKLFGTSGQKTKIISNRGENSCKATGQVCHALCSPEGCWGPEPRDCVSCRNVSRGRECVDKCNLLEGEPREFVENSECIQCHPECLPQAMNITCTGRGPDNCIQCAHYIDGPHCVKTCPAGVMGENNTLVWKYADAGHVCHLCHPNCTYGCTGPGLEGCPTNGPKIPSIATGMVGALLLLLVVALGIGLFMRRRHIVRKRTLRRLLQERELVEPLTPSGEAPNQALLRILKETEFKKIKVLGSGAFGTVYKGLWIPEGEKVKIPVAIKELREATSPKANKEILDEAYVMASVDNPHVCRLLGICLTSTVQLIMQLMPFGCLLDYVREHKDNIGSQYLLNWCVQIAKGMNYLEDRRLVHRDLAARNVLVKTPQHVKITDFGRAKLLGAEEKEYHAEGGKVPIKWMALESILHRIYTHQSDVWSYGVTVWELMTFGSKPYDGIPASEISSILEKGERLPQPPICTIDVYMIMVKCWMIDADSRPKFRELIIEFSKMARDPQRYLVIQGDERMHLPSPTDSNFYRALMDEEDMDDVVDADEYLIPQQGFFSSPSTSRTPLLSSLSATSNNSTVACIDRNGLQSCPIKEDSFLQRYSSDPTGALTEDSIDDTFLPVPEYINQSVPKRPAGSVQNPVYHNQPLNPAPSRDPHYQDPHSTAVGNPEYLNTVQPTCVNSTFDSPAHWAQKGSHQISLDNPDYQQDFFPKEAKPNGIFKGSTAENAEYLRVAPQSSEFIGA
Description: H1975 pEGFR MSD Cellular Assays
These assays are intended for determining cellular. […] (Meso Scale Discovery Catalog# N31CB-1).
NCI-H1975 (ATCC Catalog# CRL-5908) cells are maintained in medium containing RPMI 1640, 10% FBS, 4 mM L-Glutamine, 1% Penicillin-Streptomycin, and 4.5 g/L Glucose. All cell culture reagents were purchased from Invitrogen/Gibco. Cells are cultured at 37° C. at 5% CO2 and split as recommended by ATCC.
Cell Plating and Serum Starvation:
H1975 cells are harvested and plated into sterile cell culture treated 384 well plates (Greiner catalog #781091) at a density of 30,000 cells/well in 50 ul culture medium and placed in a 37° C. at 5% CO2 incubator for six hours. After six hours, culture medium is aspirated and replaced with serum-free culture medium. Cells are then incubated with the serum-free medium overnight at 37° C. and 5% CO2.
The following day, test compounds are serially diluted in dimethyl sulfoxide (DMSO) and added to cells in serum free medium (final DMSO concentration 0.5%). Assay plates are then incubated for 1 hour at 37° C. and 5% CO2. Following 1 hour of compound incubation cells are then lysed and processed as per the MSD pEGFR assay kit protocol. Cell lysates are added to assay plates pre-coated with antibodies against phosphorylated EGFR. Phosphorylated EGFR in samples are allowed to bind to the capture antibodies overnight at 4° C. The detection antibody (anti-total EGFR, labeled with an electrochemiluminescent SULFO-TAG) is added to the bound lysate and incubated for 1 hour at room temperature. The MSD Read Buffer is added such that when a voltage is applied to the plate electrodes, the labels bound to the electrode surface emit light. The MSD Sector Instrument measures the intensity of the light, and quantitatively measures the amount of phosphorylated-EGFR in the sample. Percent inhibition of EGFR phosphorylation by varying concentrations of test compounds is calculated relative to untreated controls. EC50 values are calculated using the 4 parameter logistic nonlinear regression dose-response model.

[2] = tested on: H1975 (EGFR T790M/L858R) cell proliferation; assay: H1975 proliferation assay (Cell Titer-Glo); assay type: cell-based; details: Homo sapiens, NCI-H1975, 72 h, NCI-H1975 cells, 72 hour incubation, read-out: H1975 antiproliferative EC50
Description: H1975 Proliferation Assays
All cell culture reagents were purchased from Invitrogen/Gibco. Cells are cultured at 37° C. at 5% CO2 and split as recommended by ATCC.

T1 sequence (P00533 25-1210 T790M/L858R): as above

Row | Compound | Ki (EGFR T790M L858R) [nM] | Ki (EGFR del746-750 T790M) [nM] | EC50 [1] [nM] | EC50 [2] [nM]
1 | CC(C)n1nc(N2CC(C(=O)N(C)C)C2)c2cnc(Nc3ccnc(-c4cnn(S(=O)(=O)C5CC5)c4)n3)cc21 [Example 57, 1-(6-(2-(1-(cyclopropylsulfonyl)-1H-pyrazol-4-yl)pyrimidin-4-ylamino)-1-isopropyl-1H-pyrazolo[4,3-c]pyridin-3-yl)-N,N-dimethylazetidine-3-carboxamide] | < 0.6 | – | 18.1 | 159
2 | CC(C)n1nc(N2CC[C@H](CO)C2)c2cnc(Nc3ccnc(-c4cnn(S(=O)(=O)C5CC5)c4)n3)cc21 [Example 58, (S)-(1-(6-(2-(1-(cyclopropylsulfonyl)-1H-pyrazol-4-yl)pyrimidin-4-ylamino)-1-isopropyl-1H-pyrazolo[4,3-c]pyridin-3-yl)pyrrolidin-3-yl)methanol] | 1.2 | – | 9.4 | 139
3 | CC(C)n1nc(NCC(C)(C)O)c2cnc(Nc3ccnc(-c4cnn(S(=O)(=O)C5CC5)c4)n3)cc21 [Example 61, 1-(6-(2-(1-(cyclopropylsulfonyl)-1H-pyrazol-4-yl)pyrimidin-4-ylamino)-1-isopropyl-1H-pyrazolo[4,3-c]pyridin-3-ylamino)-2-methylpropan-2-ol] | 1 | – | 68.9 | 1200
4 | CC(C)n1nc(N2CCN(C(=O)C(C)(C)O)CC2)c2cnc(Nc3ccnc(N4CCC(C)(O)CC4)n3)cc21 [Example 78, 2-Hydroxy-1-(4-(6-(2-(4-hydroxy-4-methylpiperidin-1-yl)pyrimidin-4-ylamino)-1-isopropyl-1H-pyrazolo[4,3-c]pyridin-3-yl)piperazin-1-yl)-2-methylpropan-1-one] | 21.5 | 75.5 | – | –
5 | CC1CCC(C)N1c1nn(C(C)C)c2cc(Nc3ccnc(-c4cnn(S(=O)(=O)C5CC5)c4)n3)ncc12 (stereo not drawn) [Example 91, N-(2-(1-(Cyclopropylsulfonyl)-1H-pyrazol-4-yl)pyrimidin-4-yl)-3-(2,5-dimethylpyrrolidin-1-yl)-1-isopropyl-1H-pyrazolo[4,3-c]pyridin-6-amine] | 20.2 | 20.4 | – | –
6 | CC(C)n1nc(C2=NC(C)(C)NC2=O)c2cnc(Nc3ccnc(N4CCC(C)(O)CC4)n3)cc21 [Example 95, 4-(6-(2-(4-Hydroxy-4-methylpiperidin-1-yl)pyrimidin-4-ylamino)-1-isopropyl-1H-pyrazolo[4,3-c]pyridin-3-yl)-2,2-dimethyl-1,2-dihydroimidazol-5-one] | 15.2 | 59.5 | – | –
7 | CCC(=O)N1CCN(c2nn(C(C)C)c3cc(Nc4ccnc(N5CCC(C)(O)CC5)n4)ncc23)CC1 [Example 134, 1-(4-(6-(2-(4-Hydroxy-4-methylpiperidin-1-yl)pyrimidin-4-ylamino)-1-isopropyl-1H-pyrazolo[4,3-c]pyridin-3-yl)piperazin-1-yl)propan-1-one] | 11.5 | 33.7 | – | –
8 | CC1COCC(C)N1c1nn(C(C)C)c2cc(Nc3ccnc(-c4cnn(S(=O)(=O)C5CC5)c4)n3)ncc12 (stereo not drawn) [Example 180, N-(2-(1-(Cyclopropylsulfonyl)-1H-pyrazol-4-yl)pyrimidin-4-yl)-3-(3,5-dimethylmorpholino)-1-isopropyl-1H-pyrazolo[4,3-c]pyridin-6-amine] | 302 | 201 | – | > 10000

Further lines, results first:

Row | Ki (EGFR T790M L858R) [nM] | Ki (EGFR del746-750 T790M) [nM] | EC50 [1] [nM] | EC50 [2] [nM] | Compound
9 | 377 | 1150 | – | – | CC(C)n1nc(NC(C)(C)C(N)=O)c2cnc(Nc3ccnc(N4CC[C@H](O)[C@H](F)C4)n3)cc21 (racemic) [Example 182, (±)-2-(6-(2-(cis-3-Fluoro-4-hydroxypiperidin-1-yl)pyrimidin-4-ylamino)-1-isopropyl-1H-pyrazolo[4,3-c]pyridin-3-ylamino)-2-methylpropanamide]
10 | 143 | 111 | – | – | CC[C@H](C)n1nc(N2CC[C@@H](O)C2)c2cnc(Nc3ccnc(N4CC[C@](C)(C(N)=O)C4)n3)cc21 (relative stereo) [Example 209, (S*)-1-(4-((1-((S*)-sec-Butyl)-3-((R)-3-hydroxypyrrolidin-1-yl)-1H-pyrazolo[4,3-c]pyridin-6-yl)amino)pyrimidin-2-yl)-3-methylpyrrolidine-3-carboxamide]
11 | 469 | 1060 | – | – | CCC(C)n1nc(N2CC[C@@H](O)C2)c2cnc(Nc3ccnc(N4CCC5(CC4)CNC(=O)CO5)n3)cc21 (single isomer, unassigned) [Example 207, 9-(4-((1-((S*)-sec-Butyl)-3-((R)-3-hydroxypyrrolidin-1-yl)-1H-pyrazolo[4,3-c]pyridin-6-yl)amino)pyrimidin-2-yl)-1-oxa-4,9-diazaspiro[5.5]undecan-3-one]
12 | 1.2 | – | 31.1 | 348 | CC(C)n1nc(N2CC(C(=O)N(C)C)C2)c2cnc(Nc3ccnc(N4CCC(O)C(C)(C)C4)n3)cc21 (stereo not drawn) [Example 56, 1-(6-(2-(4-hydroxy-3,3-dimethylpiperidin-1-yl)pyrimidin-4-ylamino)-1-isopropyl-1H-pyrazolo[4,3-c]pyridin-3-yl)-N,N-dimethylazetidine-3-carboxamide]
13 | 12 | – | 458 | 3590 | CC(C)Oc1nn(C(C)C)c2cc(Nc3ccnc(-c4cnn(S(=O)(=O)C5CC5)c4)n3)ncc12 [Example 62, N-(2-(1-(cyclopropylsulfonyl)-1H-pyrazol-4-yl)pyrimidin-4-yl)-3-isopropoxy-1-isopropyl-1H-pyrazolo[4,3-c]pyridin-6-amine]
14 | 18.7 | 29.2 | – | > 10000 | CC(C)n1nc(NC2CNC(=O)C2)c2cnc(Nc3ccnc(N4CCC(C)(O)CC4)n3)cc21 (stereo not drawn) [Example 77, 4-(6-(2-(4-Hydroxy-4-methylpiperidin-1-yl)pyrimidin-4-ylamino)-1-isopropyl-1H-pyrazolo[4,3-c]pyridin-3-ylamino)pyrrolidin-2-one]
15 | 110 | 65.4 | – | – | CC(C)n1nc(C#N)c2cnc(Nc3ccnc(-c4cnn(S(=O)(=O)C5CC5)c4)n3)cc21 [Example 93, 6-(2-(1-(Cyclopropylsulfonyl)-1H-pyrazol-4-yl)pyrimidin-4-ylamino)-1-isopropyl-1H-pyrazolo[4,3-c]pyridine-3-carbonitrile]
16 | 872 | > 2900 | – | – | CC(C)n1nc(C2(C)CCCO2)c2cnc(Nc3ccnc(N4CCC(C)(O)CC4)n3)cc21 (stereo not drawn) [Example 94, 1-(4-(1-Isopropyl-3-(2-methyltetrahydrofuran-2-yl)-1H-pyrazolo[4,3-c]pyridin-6-ylamino)pyrimidin-2-yl)-4-methylpiperidin-4-ol]
17 | 10.3 | 46.3 | – | – | CC(C)n1nc(N2CCN(C(=O)CO)CC2)c2cnc(Nc3ccnc(N4CCC(C)(O)CC4)n3)cc21 [Example 135, 2-Hydroxy-1-(4-(6-(2-(4-hydroxy-4-methylpiperidin-1-yl)pyrimidin-4-ylamino)-1-isopropyl-1H-pyrazolo[4,3-c]pyridin-3-yl)piperazin-1-yl)ethanone]
18 | 10.6 | 39.9 | – | – | CC(O)C(=O)N1CCN(c2nn(C(C)C)c3cc(Nc4ccnc(N5CCC(C)(O)CC5)n4)ncc23)CC1 (stereo not drawn) [Example 136, 2-Hydroxy-1-(4-(6-(2-(4-hydroxy-4-methylpiperidin-1-yl)pyrimidin-4-ylamino)-1-isopropyl-1H-pyrazolo[4,3-c]pyridin-3-yl)piperazin-1-yl)propan-1-one]
19 | – | 0.8 | – | 211 | COCC1CN(c2nn(C(C)C)c3cc(Nc4ccnc(-c5cnn(S(=O)(=O)C6CC6)c5)n4)ncc23)C1 [Example 152, N-(2-(1-(Cyclopropylsulfonyl)-1H-pyrazol-4-yl)pyrimidin-4-yl)-1-isopropyl-3-(3-(methoxymethyl)azetidin-1-yl)-1H-pyrazolo[4,3-c]pyridin-6-amine]
